Key:
Type in all cases: biochemical
[1] = target: MLK3 (Homo sapiens, UniProt Q16584); assay: Kinase profiling MLK3; conditions: 100 micromolar inhibitor concentration, 100 is no change; for remaining activity at 100 µM: read-out: residual kinase activity, MLK3
Source text: (§1) Any value less that 25 is considered to be highly significant inhibition.

[2] = system: VEG-FR; assay: Kinase profiling VEG-FR; conditions: 100 micromolar inhibitor concentration; 100 is no change
Source text: as §1

[3] = target: Lck (Homo sapiens, UniProt P06239); assay: Kinase profiling Lck; conditions: 100 micromolar inhibitor concentration, 100 is no change; for remaining activity at 100 µM: read-out: residual kinase activity, Lck
Chain of Lck (P06239 whole entry, species assumed): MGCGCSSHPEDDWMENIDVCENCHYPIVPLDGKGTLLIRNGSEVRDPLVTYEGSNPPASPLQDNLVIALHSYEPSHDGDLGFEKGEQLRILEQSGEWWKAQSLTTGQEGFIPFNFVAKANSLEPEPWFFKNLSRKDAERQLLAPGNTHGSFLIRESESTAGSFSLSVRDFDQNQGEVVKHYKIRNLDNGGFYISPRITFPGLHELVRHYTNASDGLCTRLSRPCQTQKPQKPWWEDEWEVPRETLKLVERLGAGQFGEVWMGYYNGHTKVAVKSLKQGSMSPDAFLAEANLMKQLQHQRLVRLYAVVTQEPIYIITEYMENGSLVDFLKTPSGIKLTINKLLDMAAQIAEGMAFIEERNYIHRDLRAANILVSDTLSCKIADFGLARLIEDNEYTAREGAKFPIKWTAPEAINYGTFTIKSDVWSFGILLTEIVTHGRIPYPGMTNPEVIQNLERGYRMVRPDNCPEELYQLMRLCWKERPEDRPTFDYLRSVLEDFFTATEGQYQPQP
Source text: as §1

[4] = target: JNK3 (Homo sapiens, UniProt P53779); assay: Kinase profiling JNK3; conditions: 100 micromolar inhibitor concentration, 100 is no change; for remaining activity at 100 µM: read-out: residual kinase activity, JNK3
Source text: as §1

[5] = target: IGF-1R (Homo sapiens, UniProt P08069); assay: Kinase profiling IGF-1R; conditions: 100 micromolar inhibitor concentration, 100 is no change; for remaining activity at 100 µM: read-out: residual kinase activity, IGF-1R
Source text: as §1

[6] = target: BTK (Homo sapiens, UniProt Q06187); assay: Kinase profiling BTK; conditions: 100 micromolar inhibitor concentration, 100 is no change; for remaining activity at 100 µM: read-out: residual kinase activity, BTK
Source text: as §1

[7] = target: S6K1 (Homo sapiens, UniProt P23443); assay: Kinase profiling S6K1; conditions: 100 micromolar inhibitor concentration, 100 is no change; for remaining activity at 100 µM: read-out: residual kinase activity, S6K1
Source text: as §1

[8] = target: MKK2 (Homo sapiens, UniProt P36507); assay: Kinase profiling MKK2; conditions: 100 micromolar inhibitor concentration, 100 is no change; for remaining activity at 100 µM: read-out: residual kinase activity, MKK2
Chain of MKK2 (P36507 whole entry, species assumed): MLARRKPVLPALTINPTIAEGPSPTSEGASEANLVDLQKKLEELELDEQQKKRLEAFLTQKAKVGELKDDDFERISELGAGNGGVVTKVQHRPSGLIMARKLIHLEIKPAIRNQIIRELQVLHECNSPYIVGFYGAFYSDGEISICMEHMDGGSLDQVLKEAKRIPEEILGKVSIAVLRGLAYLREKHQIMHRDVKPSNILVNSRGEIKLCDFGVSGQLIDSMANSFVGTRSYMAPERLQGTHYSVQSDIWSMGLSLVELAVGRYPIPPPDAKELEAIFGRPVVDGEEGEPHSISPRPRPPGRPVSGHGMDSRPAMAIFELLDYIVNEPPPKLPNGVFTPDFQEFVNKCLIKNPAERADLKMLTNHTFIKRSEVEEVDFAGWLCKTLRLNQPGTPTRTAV
Source text: as §1

[9] = target: SmMLCK (Homo sapiens, UniProt Q15746); assay: Kinase profiling SmMLCK; conditions: 100 micromolar inhibitor concentration, 100 is no change; for remaining activity at 100 µM: read-out: residual kinase activity, SmMLCK
Chain of SmMLCK (Q15746 923-1914): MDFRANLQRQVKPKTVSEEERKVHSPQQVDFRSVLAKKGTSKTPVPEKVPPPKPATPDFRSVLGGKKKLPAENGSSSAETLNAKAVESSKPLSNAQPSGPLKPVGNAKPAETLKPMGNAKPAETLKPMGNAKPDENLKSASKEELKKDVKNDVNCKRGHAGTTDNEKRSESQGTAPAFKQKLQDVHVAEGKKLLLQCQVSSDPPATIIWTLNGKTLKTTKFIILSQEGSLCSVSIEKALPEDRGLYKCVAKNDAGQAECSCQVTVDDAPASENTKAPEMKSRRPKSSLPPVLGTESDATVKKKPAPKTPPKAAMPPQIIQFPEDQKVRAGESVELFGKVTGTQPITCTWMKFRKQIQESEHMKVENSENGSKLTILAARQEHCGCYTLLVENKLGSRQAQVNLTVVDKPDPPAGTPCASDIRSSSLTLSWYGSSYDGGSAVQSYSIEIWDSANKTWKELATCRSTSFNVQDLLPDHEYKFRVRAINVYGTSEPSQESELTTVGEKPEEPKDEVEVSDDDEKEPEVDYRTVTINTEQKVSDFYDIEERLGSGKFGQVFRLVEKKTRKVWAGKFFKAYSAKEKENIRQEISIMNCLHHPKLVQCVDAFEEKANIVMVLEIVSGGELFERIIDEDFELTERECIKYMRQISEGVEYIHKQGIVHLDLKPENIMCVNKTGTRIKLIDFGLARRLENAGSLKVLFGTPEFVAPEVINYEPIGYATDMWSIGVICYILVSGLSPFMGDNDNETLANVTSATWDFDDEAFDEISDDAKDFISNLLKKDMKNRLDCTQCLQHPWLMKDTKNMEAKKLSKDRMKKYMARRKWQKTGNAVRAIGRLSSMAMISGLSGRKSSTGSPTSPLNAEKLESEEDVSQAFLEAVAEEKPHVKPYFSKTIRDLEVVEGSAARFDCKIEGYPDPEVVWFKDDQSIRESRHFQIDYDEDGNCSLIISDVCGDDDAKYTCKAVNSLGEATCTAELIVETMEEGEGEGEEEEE

[10] = target: T1, p38d MAPK (Homo sapiens, UniProt O15264); assay: Kinase profiling p38d MAPK; conditions: 100 micromolar inhibitor concentration, 100 is no change; for remaining activity at 100 µM: read-out: residual kinase activity, p38d MAPK
T1 sequence (O15264 1-365): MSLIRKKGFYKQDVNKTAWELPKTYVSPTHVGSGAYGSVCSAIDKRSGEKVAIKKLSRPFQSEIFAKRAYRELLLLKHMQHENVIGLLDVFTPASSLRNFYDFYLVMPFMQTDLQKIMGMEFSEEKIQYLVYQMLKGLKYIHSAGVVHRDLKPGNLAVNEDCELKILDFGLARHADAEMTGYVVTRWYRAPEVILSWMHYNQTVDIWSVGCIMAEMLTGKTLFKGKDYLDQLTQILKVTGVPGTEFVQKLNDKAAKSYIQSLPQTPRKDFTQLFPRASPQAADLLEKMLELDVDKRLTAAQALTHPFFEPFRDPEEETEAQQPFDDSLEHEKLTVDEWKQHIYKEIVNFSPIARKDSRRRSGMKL
Source text: as §1

[11] = target: PKBb (Homo sapiens, UniProt P31751); assay: Kinase profiling PKBb; conditions: for remaining activity at 100 µM: read-out: residual kinase activity, PKBb; for residual kinase activity, PKBb: 100 micromolar inhibitor concentration, 100 is no change
Chain of PKBb (P31751 whole entry): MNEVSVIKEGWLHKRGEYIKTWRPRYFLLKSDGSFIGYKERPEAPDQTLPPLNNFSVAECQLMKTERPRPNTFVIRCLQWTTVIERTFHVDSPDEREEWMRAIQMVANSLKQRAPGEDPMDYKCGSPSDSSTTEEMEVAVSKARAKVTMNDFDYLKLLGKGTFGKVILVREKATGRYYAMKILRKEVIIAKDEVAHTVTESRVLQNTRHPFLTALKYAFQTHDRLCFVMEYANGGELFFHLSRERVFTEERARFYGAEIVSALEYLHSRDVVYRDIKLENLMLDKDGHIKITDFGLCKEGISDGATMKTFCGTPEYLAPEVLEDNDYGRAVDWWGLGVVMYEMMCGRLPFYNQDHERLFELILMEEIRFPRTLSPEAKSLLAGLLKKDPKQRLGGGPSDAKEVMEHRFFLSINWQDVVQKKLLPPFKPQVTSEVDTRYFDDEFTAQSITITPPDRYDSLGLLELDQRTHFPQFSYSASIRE
Source text: as §1

[12] = target: PRK2 (Homo sapiens, UniProt Q16513); assay: Kinase profiling PRK2; conditions: 100 micromolar inhibitor concentration, 100 is no change; for remaining activity at 100 µM: read-out: residual kinase activity, PRK2
Chain of PRK2 (Q16513 whole entry, species assumed): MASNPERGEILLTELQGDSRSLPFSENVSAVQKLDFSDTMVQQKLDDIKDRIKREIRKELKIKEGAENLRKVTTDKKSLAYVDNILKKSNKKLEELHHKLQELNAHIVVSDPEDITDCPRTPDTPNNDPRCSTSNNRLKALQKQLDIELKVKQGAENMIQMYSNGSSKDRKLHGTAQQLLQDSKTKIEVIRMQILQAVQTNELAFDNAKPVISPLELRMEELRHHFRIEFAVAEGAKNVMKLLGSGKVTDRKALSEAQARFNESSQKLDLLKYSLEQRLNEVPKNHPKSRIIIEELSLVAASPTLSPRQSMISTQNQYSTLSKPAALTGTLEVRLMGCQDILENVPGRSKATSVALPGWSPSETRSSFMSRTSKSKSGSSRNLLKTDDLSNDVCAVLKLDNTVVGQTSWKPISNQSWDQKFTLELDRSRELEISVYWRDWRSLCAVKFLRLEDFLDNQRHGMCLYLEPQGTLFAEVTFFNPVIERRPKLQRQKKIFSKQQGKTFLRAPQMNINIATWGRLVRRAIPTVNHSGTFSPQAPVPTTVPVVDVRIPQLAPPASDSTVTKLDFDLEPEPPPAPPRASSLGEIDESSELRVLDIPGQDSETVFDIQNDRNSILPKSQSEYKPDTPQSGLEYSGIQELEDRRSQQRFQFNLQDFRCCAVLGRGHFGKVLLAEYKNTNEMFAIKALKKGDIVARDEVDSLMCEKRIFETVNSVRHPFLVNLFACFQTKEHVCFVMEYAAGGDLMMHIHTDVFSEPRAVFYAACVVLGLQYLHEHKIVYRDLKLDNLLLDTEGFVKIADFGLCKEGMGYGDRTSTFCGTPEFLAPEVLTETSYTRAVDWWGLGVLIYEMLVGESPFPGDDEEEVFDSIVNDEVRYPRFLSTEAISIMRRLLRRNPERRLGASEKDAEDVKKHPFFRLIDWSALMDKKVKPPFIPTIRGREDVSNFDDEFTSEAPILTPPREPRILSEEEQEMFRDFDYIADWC
Source text: as §1

[13] = target: ERK1 (Homo sapiens, UniProt P27361); assay: Kinase profiling ERK1; conditions: 100 micromolar inhibitor concentration, 100 is no change; for remaining activity at 100 µM: read-out: residual kinase activity, ERK1
Source text: as §1

[14] = target: HIPK2 (Homo sapiens, UniProt Q9H2X6); assay: Kinase profiling HIPK2; conditions: 100 micromolar inhibitor concentration, 100 is no change; for remaining activity at 100 µM: read-out: residual kinase activity, HIPK2
Source text: as §1

[15] = target: T2, SGK1 (Homo sapiens, UniProt O00141); assay: Kinase profiling SGK1; conditions: 100 micromolar inhibitor concentration, 100 is no change; for remaining activity at 100 µM: read-out: residual kinase activity, SGK1
T2 sequence (O00141 1-431): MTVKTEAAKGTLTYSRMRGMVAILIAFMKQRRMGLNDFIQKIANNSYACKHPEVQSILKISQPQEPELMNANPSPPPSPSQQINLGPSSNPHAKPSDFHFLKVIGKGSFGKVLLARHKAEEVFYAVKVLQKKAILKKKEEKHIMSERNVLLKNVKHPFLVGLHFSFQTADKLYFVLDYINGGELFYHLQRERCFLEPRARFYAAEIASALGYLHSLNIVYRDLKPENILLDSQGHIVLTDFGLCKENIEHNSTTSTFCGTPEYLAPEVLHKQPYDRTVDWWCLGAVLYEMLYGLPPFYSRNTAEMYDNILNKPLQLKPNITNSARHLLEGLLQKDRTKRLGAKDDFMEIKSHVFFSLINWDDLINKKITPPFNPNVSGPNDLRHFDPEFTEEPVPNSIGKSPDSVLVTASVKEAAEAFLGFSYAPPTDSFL
Source text: as §1

[16] = target: T3, PKCz (Homo sapiens, UniProt Q05513); assay: Kinase profiling PKCz; conditions: 100 micromolar inhibitor concentration, 100 is no change; for remaining activity at 100 µM: read-out: residual kinase activity, PKCz
T3 sequence (Q05513 1-592): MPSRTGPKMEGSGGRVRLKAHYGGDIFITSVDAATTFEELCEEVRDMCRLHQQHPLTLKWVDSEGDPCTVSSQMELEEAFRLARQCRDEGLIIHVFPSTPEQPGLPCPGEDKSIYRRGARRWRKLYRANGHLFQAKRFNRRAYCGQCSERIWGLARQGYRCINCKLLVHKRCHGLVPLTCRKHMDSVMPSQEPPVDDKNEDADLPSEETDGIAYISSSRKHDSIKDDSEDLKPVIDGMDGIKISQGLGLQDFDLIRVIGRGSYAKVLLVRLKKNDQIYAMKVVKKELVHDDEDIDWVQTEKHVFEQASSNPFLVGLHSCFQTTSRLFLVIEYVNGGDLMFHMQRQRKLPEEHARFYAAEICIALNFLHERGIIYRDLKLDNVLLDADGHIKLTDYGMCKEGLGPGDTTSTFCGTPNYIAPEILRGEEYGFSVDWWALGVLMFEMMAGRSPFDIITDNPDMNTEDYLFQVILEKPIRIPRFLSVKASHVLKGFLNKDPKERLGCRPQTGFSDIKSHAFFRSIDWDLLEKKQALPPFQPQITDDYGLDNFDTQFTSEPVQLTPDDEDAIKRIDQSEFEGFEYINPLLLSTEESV
Source text: as §1

[17] = target: MARK3 (Homo sapiens, UniProt P27448); assay: Kinase profiling MARK3; conditions: 100 micromolar inhibitor concentration, 100 is no change; for remaining activity at 100 µM: read-out: residual kinase activity, MARK3
Chain of MARK3 (P27448 whole entry, species assumed): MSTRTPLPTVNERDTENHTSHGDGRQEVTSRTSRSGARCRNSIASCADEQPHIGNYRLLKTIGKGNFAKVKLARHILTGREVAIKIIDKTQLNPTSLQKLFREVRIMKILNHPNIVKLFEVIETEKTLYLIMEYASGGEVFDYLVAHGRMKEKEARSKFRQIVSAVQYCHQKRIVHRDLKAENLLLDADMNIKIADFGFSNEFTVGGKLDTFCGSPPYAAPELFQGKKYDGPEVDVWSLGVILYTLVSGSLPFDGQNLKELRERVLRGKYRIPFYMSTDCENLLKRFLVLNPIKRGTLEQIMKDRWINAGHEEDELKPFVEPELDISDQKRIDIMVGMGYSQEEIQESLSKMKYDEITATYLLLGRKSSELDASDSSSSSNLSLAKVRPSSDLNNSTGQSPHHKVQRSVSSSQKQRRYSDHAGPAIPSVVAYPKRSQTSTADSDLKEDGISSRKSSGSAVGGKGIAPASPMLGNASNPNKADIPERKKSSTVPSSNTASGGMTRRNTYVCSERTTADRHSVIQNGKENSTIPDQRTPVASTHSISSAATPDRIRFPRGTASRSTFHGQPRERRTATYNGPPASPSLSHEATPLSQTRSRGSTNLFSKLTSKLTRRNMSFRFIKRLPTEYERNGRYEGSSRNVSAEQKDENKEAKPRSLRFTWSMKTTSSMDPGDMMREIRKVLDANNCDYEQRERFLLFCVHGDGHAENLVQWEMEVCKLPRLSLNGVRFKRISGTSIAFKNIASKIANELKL
Source text: as §1

[18] = target: T4, MKK6 (Homo sapiens, UniProt P52564); assay: Kinase profiling MKK6; conditions: 100 micromolar inhibitor concentration, 100 is no change; for remaining activity at 100 µM: read-out: residual kinase activity, MKK6
T4 sequence (P52564 1-334): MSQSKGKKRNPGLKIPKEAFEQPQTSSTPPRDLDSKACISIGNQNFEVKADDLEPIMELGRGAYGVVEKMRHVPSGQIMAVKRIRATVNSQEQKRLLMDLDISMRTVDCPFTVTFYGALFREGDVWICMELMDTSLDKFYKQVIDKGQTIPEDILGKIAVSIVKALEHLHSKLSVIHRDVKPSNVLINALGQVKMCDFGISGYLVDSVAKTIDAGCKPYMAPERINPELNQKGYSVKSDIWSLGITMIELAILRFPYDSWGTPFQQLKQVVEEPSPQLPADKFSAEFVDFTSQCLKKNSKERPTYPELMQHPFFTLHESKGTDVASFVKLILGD
Source text: as §1

[19] = target: JNK2 (Homo sapiens, UniProt P45984); assay: Kinase profiling JNK2; conditions: 100 micromolar inhibitor concentration, 100 is no change; for remaining activity at 100 µM: read-out: residual kinase activity, JNK2
Source text: as §1

Chain of MLK3 (Q16584 whole entry, species assumed): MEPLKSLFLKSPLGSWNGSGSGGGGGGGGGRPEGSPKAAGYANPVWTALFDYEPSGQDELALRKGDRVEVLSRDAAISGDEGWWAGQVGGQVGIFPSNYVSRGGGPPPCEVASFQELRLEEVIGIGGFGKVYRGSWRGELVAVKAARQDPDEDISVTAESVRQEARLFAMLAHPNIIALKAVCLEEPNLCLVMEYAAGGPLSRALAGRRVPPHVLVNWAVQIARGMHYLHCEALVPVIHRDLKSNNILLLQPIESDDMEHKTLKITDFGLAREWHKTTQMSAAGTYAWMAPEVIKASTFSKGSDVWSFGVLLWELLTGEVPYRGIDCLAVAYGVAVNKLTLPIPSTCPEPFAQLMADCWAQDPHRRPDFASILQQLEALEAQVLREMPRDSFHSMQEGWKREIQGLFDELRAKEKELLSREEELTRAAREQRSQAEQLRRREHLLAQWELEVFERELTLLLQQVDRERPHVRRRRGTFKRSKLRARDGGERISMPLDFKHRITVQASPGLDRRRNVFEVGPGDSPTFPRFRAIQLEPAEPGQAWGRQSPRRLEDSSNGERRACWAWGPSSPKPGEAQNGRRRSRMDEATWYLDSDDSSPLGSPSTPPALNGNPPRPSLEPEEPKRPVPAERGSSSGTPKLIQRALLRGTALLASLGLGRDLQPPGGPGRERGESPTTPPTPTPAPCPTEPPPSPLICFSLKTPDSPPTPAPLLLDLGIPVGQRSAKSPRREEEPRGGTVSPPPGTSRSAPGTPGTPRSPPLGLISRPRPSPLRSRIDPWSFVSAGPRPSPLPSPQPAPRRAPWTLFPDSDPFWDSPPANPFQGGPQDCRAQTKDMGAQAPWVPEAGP

SMILES | remaining activity at 100 µM [1] [%] | residual kinase activity, VEG-FR [2] | residual kinase activity, MLK3 [1] | residual kinase activity, Lck [3] | residual kinase activity, JNK3 [4] | residual kinase activity, IGF-1R [5] | residual kinase activity, BTK [6] | residual kinase activity, S6K1 [7] | residual kinase activity, MKK2 [8] | residual kinase activity, SmMLCK [9] | residual kinase activity, p38d MAPK [10] | residual kinase activity, PKBb [11] | residual kinase activity, PRK2 [12] | residual kinase activity, ERK1 [13] | residual kinase activity, HIPK2 [14] | residual kinase activity, SGK1 [15] | residual kinase activity, PKCz [16] | residual kinase activity, MARK3 [17] | residual kinase activity, MKK6 [18] | residual kinase activity, JNK2 [19] | further results
COc1ccc2sc(NC(C)=O)nc2c1 [Compound 03-21] | 59 | 71 |  |  |  |  |  |  |  |  |  |  |  |  |  |  |  |  |  |  | remaining activity at 100 µM [3]: 109%; remaining activity at 100 µM [4]: 80%; remaining activity at 100 µM [5]: 78%; remaining activity at 100 µM [6]: 102%; remaining activity at 100 µM [7]: 63%; remaining activity at 100 µM [8]: 90%; remaining activity at 100 µM [9]: 50%; remaining activity at 100 µM [10]: 75%; remaining activity at 100 µM [11]: 92%; remaining activity at 100 µM [12]: 67%; remaining activity at 100 µM [13]: 87%; remaining activity at 100 µM [14]: 25%; remaining activity at 100 µM [15]: 82%; remaining activity at 100 µM [16]: 85%; remaining activity at 100 µM [17]: 72%; remaining activity at 100 µM [18]: 117%; remaining activity at 100 µM [19]: 92%
CC(=O)Nc1nc2ccccc2s1 [Compound 03-32] |  | 66 | 71 | 91 | 66 | 74 | 100 | 92 | 96 | 81 | 80 | 112 | 81 | 83 | 51 | 92 | 126 | 85 | 85 | 105 | 
O=C(Nc1nc2cc(O)ccc2s1)c1cccnc1 [Compound 03-33] |  | 50 | 48 | 105 | 76 | 50 | 110 | 75 | 85 | 52 | 103 | 93 | 85 | 93 | 52 | 86 | 105 | 85 | 122 | 92 | 
O=C(Nc1nc2ccc(O)cc2s1)c1ccccc1 [Compound 03-60] |  | 5 | 5 | 92 | 48 | 18 | 59 | 11 | 90 | 15 | 75 | 86 | 27 | 67 | 8 | 41 | 80 | 33 | 109 | 107 | 
CC(=O)Nc1nc2cc(C(F)(F)F)ccc2s1 [Compound 03-73] | 57 | 33 |  |  |  |  |  |  |  |  |  |  |  |  |  |  |  |  |  |  | remaining activity at 100 µM [3]: 101%; remaining activity at 100 µM [4]: 83%; remaining activity at 100 µM [5]: 77%; remaining activity at 100 µM [6]: 93%; remaining activity at 100 µM [7]: 77%; remaining activity at 100 µM [8]: 98%; remaining activity at 100 µM [9]: 71%; remaining activity at 100 µM [10]: 52%; remaining activity at 100 µM [11]: 104%; remaining activity at 100 µM [12]: 91%; remaining activity at 100 µM [13]: 83%; remaining activity at 100 µM [14]: 51%; remaining activity at 100 µM [15]: 77%; remaining activity at 100 µM [16]: 97%; remaining activity at 100 µM [17]: 63%; remaining activity at 100 µM [18]: 120%; remaining activity at 100 µM [19]: 111%

From patent US10231954B2, “Neurodegenerative therapies” (LYTIX BIOPHARMA AS, priority 2014, dated 2019)
